Molecular target: T1, Tyrosine-protein phosphatase non-receptor type 1 [1-298] (Homo sapiens, UniProt P18031)
T1 construct: 1-298
T1 sequence (P18031 whole entry): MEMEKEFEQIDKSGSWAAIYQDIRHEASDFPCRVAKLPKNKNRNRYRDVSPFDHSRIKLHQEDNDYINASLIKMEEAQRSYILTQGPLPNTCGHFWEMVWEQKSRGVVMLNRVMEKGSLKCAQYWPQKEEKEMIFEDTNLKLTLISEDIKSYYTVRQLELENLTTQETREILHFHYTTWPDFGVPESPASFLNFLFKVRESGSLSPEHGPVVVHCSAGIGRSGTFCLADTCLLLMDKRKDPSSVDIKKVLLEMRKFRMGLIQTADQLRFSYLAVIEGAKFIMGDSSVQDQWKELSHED
Experiment: Phosphatase Inhibition Assay
Details: pH 7; 22 °C

Row | IC50 [µM] | SMILES
1 | 3 | CC(=O)N[C@@H](Cc1ccccc1)C(=O)N[C@@H](Cc1ccc(C2=CC(=O)NS2(=O)=O)cc1)C(N)=O [(2S)-N-[(1S)-1-carbamoyl-2-[4-(1,1,3-trioxo-2,3-dihydro-1,2-thiazol-5-yl)phenyl]ethyl]-2-acetamido-3-phenylpropanamide]
2 | 16 | CC(=O)N[C@@H](Cc1ccccc1)C(=O)N[C@@H](Cc1ccc([C@H]2CC(=O)NS2(=O)=O)cc1)C(N)=O [(2S)-N-[(1S)-1-carbamoyl-2-{4-[(5R)-1,1,3-trioxo-1,2-thiazolidin-5-yl]phenyl}ethyl]-2-acetamido-3-phenylpropanamide]
